According to PubChem BioAssay AID256 (DTP/NCI, 2004):
Where “and” joins values, the source holds several entries; their conditions need not be identical. Identical values can stand only once. Inconclusive results and toxic doses are left out. The calls were made as follows: active = survival T/C of 150% or more; inactive = T/C below 125% in these data. Starred links: 1 amine or outer side, 2 acyl side, 3 side chain; linkers in the order of their positions; H or OH if unused. Positions of bridges follow the written chain, without caps; N, C: chain ends. Non-standard residues stand in square brackets, D forms with d. Residues, ends and D or L forms follow the SMILES beside them. Chains are numbered I, II in the order given. Actinocin(1to9) = Cc1c2oc3c(C)ccc(C(=O)[*:2])c3nc-2c(C(=O)[*:1])c(N)c1=O; NMeV = CN[CH](C(=O)O)C(C)C; Sar = CNCC(=O)O

System: CD2F1 mice, L1210 leukemia ip, survival T/C
Experiment: NCI In Vivo Anticancer Drug Screen. Data for tumor model L1210 Leukemia (intraperitoneal) in CD2F1 (CDF1) mice
Details: higher = longer survival
Procedure, shortened: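 Mice carrying a transplanted tumor received test compound or vehicle alone. The value is the measurement in the treated group divided by that in the vehicle-treated control group.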

[1] = endpoint: mean survival time, dose: 100.0 mg/kg/injection, schedule: Q04DX003 (ip), vehicle: saline with Tween-80
[2] = endpoint: mean survival time, dose: 200.0 mg/kg/injection, schedule: Q04DX003 (ip), vehicle: saline with Tween-80
[3] = endpoint: mean survival time, dose: 400.0 mg/kg/injection, schedule: Q04DX003 (ip), vehicle: saline with Tween-80
[4] = endpoint: mean survival time, dose: 100.0 mg/kg/injection, schedule: Q01DX001 (ip), vehicle: saline
[5] = endpoint: mean survival time, dose: 200.0 mg/kg/injection, schedule: Q01DX001 (ip), vehicle: saline
[6] = endpoint: mean survival time, dose: 100.0 mg/kg/injection, schedule: Q01DX009 (ip), vehicle: saline with Tween-80
[7] = endpoint: mean survival time, dose: 50.0 mg/kg/injection, schedule: Q01DX009 (ip), vehicle: saline with Tween-80
[8] = endpoint: mean survival time, dose: 200.0 mg/kg/injection, schedule: Q01DX009 (ip), vehicle: saline with Tween-80
[9] = endpoint: mean survival time, dose: 400.0 mg/kg/injection, schedule: Q01DX009 (ip), vehicle: saline with Tween-80

Measured: T/C

CCC(C)C1NC(=O)C(NC(=O)c2c3nc4c(C(=O)NC5C(=O)NC(C(C)CC)C(=O)N6CCCC6C(=O)N(C)CC(=O)N(C)C(C(C)C)C(=O)OC5C)ccc(C)c4oc-3c(C)c(=O)c2N)C(C)OC(=O)C(C(C)C)N(C)C(=O)CN(C)C(=O)C2CCCN2C1=O (centres undefined) (I: TIP[Sar][NMeV] / II: TIP[Sar][NMeV]; ester I:1-I:C, II:1-II:C; linker I:N-II:N via Actinocin(1to9); configuration not given here)
inactive: endpoint: mean survival time, dose: 0.25 mg/kg/injection, schedule: Q01DX001 (ip), vehicle: saline 112 % of control | endpoint: mean survival time, dose: 0.5 mg/kg/injection, schedule: Q01DX001 (ip), vehicle: saline 120 % of control

CCCCCCCCC(C(=O)c1ccccc1)C(O)(C(F)(F)F)C(F)(F)F (centres undefined)
inactive: [1] 102 % of control | [2] 111 % of control | [3] 102 % of control

O=P(O)(NCCCl)NCCCl
active: [4] 404 % of control | [5] 488 % of control | endpoint: median survival time, dose: 50.0 mg/kg/injection, schedule: Q01DX001 (ip), vehicle: saline with Tween-80 160 % of control | endpoint: median survival time, dose: 75.0 mg/kg/injection, schedule: Q01DX001 (ip), vehicle: saline 356 % of control | endpoint: median survival time, dose: 100.0 mg/kg/injection, schedule: Q01DX001 (ip), vehicle: saline with Tween-80 160 % of control and 185 % of control | endpoint: median survival time, dose: 100.0 mg/kg/injection, schedule: Q01DX001 (ip), vehicle: saline 232 % of control and 410 % of control | endpoint: median survival time, dose: 100.0 mg/kg/injection, schedule: Q01DX001 (iv), vehicle: saline 219 % of control | endpoint: median survival time, dose: 125.0 mg/kg/injection, schedule: Q01DX001 (ip), vehicle: saline 202 % of control | endpoint: median survival time, dose: 150.0 mg/kg/injection, schedule: Q01DX001 (ip), vehicle: saline 205 % of control | endpoint: median survival time, dose: 200.0 mg/kg/injection, schedule: Q01DX001 (ip), vehicle: saline with Tween-80 191 % of control
inactive: endpoint: median survival time, dose: 25.0 mg/kg/injection, schedule: Q01DX001 (ip), vehicle: saline with Tween-80 116 % of control | endpoint: median survival time, dose: 150.0 mg/kg/injection, schedule: Q01DX001 (iv), vehicle: saline 86 % of control

C/C(=C\c1ccc(Cl)c(Cl)c1)[N+](=O)[O-]
inactive: [4] 104 % of control | [5] 109 % of control | endpoint: mean survival time, dose: 400.0 mg/kg/injection, schedule: Q01DX001 (ip), vehicle: saline 111 % of control

CCCCCCCCCCCCCCCCCCn1cnc2c(Cl)ncnc21
inactive: endpoint: mean survival time, dose: 12.5 mg/kg/injection, schedule: Q01DX005 (ip), vehicle: other 87 % of control | endpoint: mean survival time, dose: 25.0 mg/kg/injection, schedule: Q01DX005 (ip), vehicle: other 91 % of control | endpoint: mean survival time, dose: 50.0 mg/kg/injection, schedule: Q01DX005 (ip), vehicle: other 92 % of control | endpoint: mean survival time, dose: 200.0 mg/kg/injection, schedule: Q01DX005 (ip), vehicle: other 86 % of control

CC(=O)OC1COC(n2nnc(C#N)c2C#N)C(OC(C)=O)C1OC(C)=O (centres undefined)
inactive: endpoint: mean survival time, dose: 12.5 mg/kg/injection, schedule: Q01DX005 (ip), vehicle: distilled water + Tween-80 103 % of control and 98 % of control | endpoint: mean survival time, dose: 25.0 mg/kg/injection, schedule: Q01DX005 (ip), vehicle: distilled water + Tween-80 97 % of control and 103 % of control | endpoint: mean survival time, dose: 50.0 mg/kg/injection, schedule: Q01DX005 (ip), vehicle: distilled water + Tween-80 98 % of control and 101 % of control | endpoint: mean survival time, dose: 100.0 mg/kg/injection, schedule: Q01DX005 (ip), vehicle: distilled water + Tween-80 104 % of control and 106 % of control | endpoint: mean survival time, dose: 200.0 mg/kg/injection, schedule: Q01DX005 (ip), vehicle: distilled water + Tween-80 95 % of control

O=C(O)C(CSC(c1ccccc1)(c1ccccc1)c1ccccc1)NC(c1ccccc1)c1ccccc1 (centres undefined)
inactive: endpoint: mean survival time, dose: 50.0 mg/kg/injection, schedule: Q01DX009 (ip), vehicle: saline 101 % of control | endpoint: mean survival time, dose: 100.0 mg/kg/injection, schedule: Q01DX009 (ip), vehicle: saline 98 % of control | endpoint: mean survival time, dose: 200.0 mg/kg/injection, schedule: Q01DX009 (ip), vehicle: saline 101 % of control | endpoint: mean survival time, dose: 400.0 mg/kg/injection, schedule: Q01DX009 (ip), vehicle: saline 101 % of control

CC(=O)Oc1c(Br)c(-c2cc([N+](=O)[O-])c(C)c([N+](=O)[O-])c2C)c(OC(C)=O)c(Br)c1-c1cc([N+](=O)[O-])c(C)c([N+](=O)[O-])c1C
inactive: [1] 93 % of control | [2] 93 % of control | [3] 87 % of control

O=C1CSC(=S)N1/N=C/c1ccccc1Cl
inactive: endpoint: mean survival time, dose: 75.0 mg/kg/injection, schedule: Q01DX001 (ip), vehicle: other 96 % of control | endpoint: mean survival time, dose: 150.0 mg/kg/injection, schedule: Q01DX001 (ip), vehicle: other 96 % of control | endpoint: mean survival time, dose: 300.0 mg/kg/injection, schedule: Q01DX001 (ip), vehicle: other 94 % of control

CC(=O)c1cc2ccccc2o1
inactive: endpoint: mean survival time, dose: 6.25 mg/kg/injection, schedule: Q04DX003 (ip), vehicle: saline with Tween-80 96 % of control | endpoint: mean survival time, dose: 12.5 mg/kg/injection, schedule: Q04DX003 (ip), vehicle: saline with Tween-80 96 % of control | endpoint: mean survival time, dose: 25.0 mg/kg/injection, schedule: Q04DX003 (ip), vehicle: saline with Tween-80 101 % of control | endpoint: mean survival time, dose: 50.0 mg/kg/injection, schedule: Q04DX003 (ip), vehicle: saline with Tween-80 95 % of control

CC1CCC2(OC1)OC1C(O)C3C4CCC5CC(OC6OC(CO)C(OC7OC(CO)C(O)C(OC8OCC(O)C(O)C8O)C7OC7OC(CO)C(O)C(OC8OC(CO)C(O)C(O)C8O)C7O)C(O)C6O)C(O)CC5(C)C4CCC3(C)C1C2C (centres undefined)
inactive: endpoint: mean survival time, dose: 5.0 mg/kg/injection, schedule: Q01DX009 (ip), vehicle: saline 92 % of control | endpoint: mean survival time, dose: 6.25 mg/kg/injection, schedule: Q01DX001 (ip), vehicle: saline with Tween-80 96 % of control | endpoint: mean survival time, dose: 10.0 mg/kg/injection, schedule: Q01DX009 (ip), vehicle: saline 93 % of control | endpoint: mean survival time, dose: 12.5 mg/kg/injection, schedule: Q01DX001 (ip), vehicle: saline with Tween-80 103 % of control | endpoint: mean survival time, dose: 20.0 mg/kg/injection, schedule: Q01DX009 (ip), vehicle: saline 96 % of control | endpoint: mean survival time, dose: 25.0 mg/kg/injection, schedule: Q01DX001 (ip), vehicle: saline with Tween-80 100 % of control | endpoint: mean survival time, dose: 40.0 mg/kg/injection, schedule: Q01DX009 (ip), vehicle: saline 102 % of control

CCCCCCCCC(=O)N1CCOCC1
inactive: [6] 108 % of control | endpoint: mean survival time, dose: 150.0 mg/kg/injection, schedule: Q04DX003 (ip), vehicle: saline 96 % of control

NC(=O)c1cc2c3ccccc3ncc2c2ccccc12
inactive: [1] 101 % of control | [2] 97 % of control | [3] 94 % of control

CCOP(=S)(OCC)N1c2ccccc2Sc2ccccc21
inactive: [7] 95 % of control | [6] 90 % of control

COc1cc(OC)c(NC(=O)Oc2ccc(F)cc2Cl)cc1Cl
inactive: [7] 88 % of control | [6] 100 % of control | [8] 103 % of control

Cc1cccc(CN(C)C)n1
inactive: endpoint: mean survival time, dose: 100.0 mg/kg/injection, schedule: Q04DX002 (ip), vehicle: saline 105 % of control

N#CCCC(C#N)(CCC#N)C(N)=O
inactive: [1] 98 % of control | [2] 98 % of control | [3] 107 % of control

CN(C)c1ccc2c(NCCCCCCNc3ccnc4cc(N(C)C)ccc34)ccnc2c1
inactive: endpoint: median survival time, dose: 1.56 mg/kg/injection, schedule: Q01DX009 (ip), vehicle: distilled water + Tween-80 + alcohol 105 % of control | endpoint: median survival time, dose: 3.12 mg/kg/injection, schedule: Q01DX009 (ip), vehicle: distilled water + Tween-80 + alcohol 104 % of control | endpoint: median survival time, dose: 6.25 mg/kg/injection, schedule: Q01DX009 (ip), vehicle: distilled water + Tween-80 + alcohol 111 % of control

CN(C)N=Nc1cc(Cl)cc(C(N)=O)c1Cl
inactive: endpoint: mean survival time, dose: 88.0 mg/kg/injection, schedule: Q01DX009 (ip), vehicle: saline with Tween-80 123 % of control | endpoint: mean survival time, dose: 177.0 mg/kg/injection, schedule: Q01DX009 (ip), vehicle: saline with Tween-80 120 % of control | [9] 96 % of control

NC(=O)C(NCCn1cnc2c(N)ncnc21)C(N)=O
inactive: endpoint: mean survival time, dose: 1.25 mg/kg/injection, schedule: Q01DX005 (ip), vehicle: water 92 % of control | endpoint: mean survival time, dose: 2.5 mg/kg/injection, schedule: Q01DX005 (ip), vehicle: water 92 % of control | endpoint: mean survival time, dose: 5.0 mg/kg/injection, schedule: Q01DX005 (ip), vehicle: water 92 % of control | endpoint: mean survival time, dose: 10.0 mg/kg/injection, schedule: Q01DX005 (ip), vehicle: water 95 % of control | endpoint: mean survival time, dose: 20.0 mg/kg/injection, schedule: Q01DX005 (ip), vehicle: water 95 % of control

COC(=O)CCS/C=C/C(=O)O
inactive: endpoint: mean survival time, dose: 100.0 mg/kg/injection, schedule: Q01DX001 (ip), vehicle: saline with Tween-80 97 % of control | endpoint: mean survival time, dose: 200.0 mg/kg/injection, schedule: Q01DX001 (ip), vehicle: saline with Tween-80 100 % of control | endpoint: mean survival time, dose: 400.0 mg/kg/injection, schedule: Q01DX001 (ip), vehicle: saline with Tween-80 97 % of control

O=c1cn[nH]c2cc(Cl)ccc12
inactive: [6] 91 % of control | [1] 100 % of control | [8] 101 % of control | [2] 105 % of control | [9] 92 % of control | [3] 97 % of control
